This is an account of results in US20110206607A1, “IMIDAZOL (1,2-A)PYRIDINES AND RELATED COMPOUNDS WITH ACTIVITY AT CANNABINOID CB2 RECEPTORS” (priority 2007, published 2011).

T1 sequence (P34972 whole entry): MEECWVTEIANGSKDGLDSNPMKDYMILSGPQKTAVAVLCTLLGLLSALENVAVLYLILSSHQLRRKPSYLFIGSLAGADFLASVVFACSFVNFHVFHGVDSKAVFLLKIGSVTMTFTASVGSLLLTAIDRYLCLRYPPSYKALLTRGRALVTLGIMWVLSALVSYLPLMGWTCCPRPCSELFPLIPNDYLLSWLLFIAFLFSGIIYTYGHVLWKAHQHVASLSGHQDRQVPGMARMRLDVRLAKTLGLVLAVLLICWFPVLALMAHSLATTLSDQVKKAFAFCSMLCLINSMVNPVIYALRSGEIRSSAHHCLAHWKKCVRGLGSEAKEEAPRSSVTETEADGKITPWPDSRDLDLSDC

The experiment concerns the target T1, human CB2 (Homo sapiens, UniProt P34972).
T1 construct: expressed in transfected cells; host or cells: HEK-293T (transient transfection, membrane preparation)
Nature of the experiment: CB2 receptor binding assay, block of [3H]-CP 55,940 binding. The conditions noted are these: membranes of HEK-293T cells transfected with human CB2 cDNA; 1.5 nM [3H]-CP 55,940. On the procedure: Membrane preparation—HEK-293T cells were cultured according to ATCC (Manassas, Va.) guidelines and transfected with human CB2 cDNA (SEQ ID NO:1) (Genbank X74328), operably linked to the SV40 promoter, using Polyfect (Qiagen, Valencia, Calif.) or Fugene (Roche, Nutley, N.J.) according to manufacturer's instructions. 48 h after transfection cells were harvested in ice cold membrane buffer (20 mM HEPES, 6 mM MgCl2, 1 mM EDTA, pH 7.2) using a cell scraper. Cells were transferred to a nitrogen cavitation chamber and a pressure of […] was applied for 30 min. The pressure was released and the cell debris was collected and centrifuged at 1000 g at 4° C. for 10 min. The supernatant was collected and the spin was repeated until the supernatant was free of precipitate. Membranes were then pelleted by centrifugation at 12.000 g at 4° C. for 20 min. Membranes were resuspended in an appropriate amount of membrane buffer. The membrane concentration was determined using a BioRad (Hercules, Calif.) protein assay dye reagent according to manufacturer's instructions. Membranes were diluted to 1 mg/ml and aliquots snap-frozen in liquid nitrogen and store at −80° C.
Binding assay—0.5-10 ng of membranes were incubated in binding buffer (50 mM Tris, 0.5 mM EDTA, 0.1% BSA, pH 7.4) in the presence of 1.5 nM radioligand ([^3H]-CP 55,940 Perkin Elmer) and varying concentrations of ligands (total volume 100 μL in a 96 well plate). Membranes were filtered onto a 96 well GF/B filterplate (Packard Bioscience, Shelton, Conn.) and washed with […] wash buffer (25 mM HEPES, 1 mM CaCl2, 5 mM MgCl2, 0.25M NaCl) using a Filtermate 196 Harvester (Packard Instruments, Downers Grove, Ill.). The filter plates were dried under a heat lamp before addition of 50 μL of scintillation fluid to each well (Microscint 20, Packard, Shelton, Conn.). Plates were counted on a Topcount NXT (Packard, Shelton, Conn.).
Data Analysis—Graphs were plotted and KD values were determined by nonlinear regression analysis using Prism software (GraphPad version 4.0, San Diego, Calif., USA).
Compound `Cc1ccn2c(Nc3ccc4c(c3)OCCO4)c(-c3c(Cl)cccc3Cl)nc2c1` [CR-68] registered a pKi of 6.9. On to `Cc1cccc2nc(-c3ccc(OCCF)c(O)c3)c(Nc3ccc4c(c3)OCCO4)n12` [CR-69], for which the negative logarithm of the Ki (pKi) was 6.8. Take `COc1cc(-c2nc3ncccn3c2Nc2ccc3c(c2)OCCO3)ccc1O` [CR-70]: the negative-log Ki (pKi) is 6.8.

In turn, `COc1cc(-c2nc3ccccn3c2Nc2ccc3c(c2)OCCO3)ccc1O` [CR-71] had a negative-log Ki (pKi) of 6.8. `COc1cc(-c2nc3c(C)cccn3c2Nc2ccc3c(c2)OCCO3)ccc1O` [CR-72] showed a negative-log Ki (pKi) of 6.8. `COc1ccnc2nc(-c3c(C)cc(OCCF)cc3C)c(Nc3ccc4c(c3)OCCO4)n12` [CR-73] yielded a pKi of 6.8. In turn, `Cc1cccc(C)c1-c1nc2ncccn2c1Nc1ccc2c(c1)OCCO2` [CR-74] came in with a negative logarithm of the Ki (pKi) of 6.8.

Turning to `COc1cc(-c2nc3cnccn3c2Nc2ccc3c(c2)OCCO3)ccc1O` [CR-75], the pKi is 6.8. `Fc1cccnc1-c1nc2cnccn2c1Nc1ccc2c(c1)OCCO2` [CR-76] had a pKi of 5.2. `COc1cc(-c2nc3ccc(Cl)cn3c2Nc2ccc3c(c2)OCCO3)ccc1O` [CR-77] gave a negative logarithm of the Ki (pKi) of 6.7.

In the case of `Fc1ncccc1-c1nc2cnccn2c1Nc1ccc2c(c1)OCCO2` [CR-78], the pKi was determined as 5.4.

The compound `COc1cc(O)ccc1-c1nc2ccccn2c1Nc1ccc2c(c1)OCCO2` [CR-79] came in with a negative-log Ki (pKi) of 6.7. `Cc1cn2c(Nc3ccc4c(c3)OCCO4)c(-c3c(F)cccc3Cl)nc2cn1` [CR-80] showed a pKi of 6.7.

`COc1cc(-c2nc3ccc(C)cn3c2Nc2ccc3c(c2)OCCO3)ccc1O` [CR-81] showed a pKi of 6.7. Still for that read-out and setting: the result for `Cc1cccc(C)c1-c1nc2cnccn2c1Nc1ccc2c(c1)OCCO2` [CR-82] reads 6.7; that for `Fc1cc(-c2nc3cnccn3c2Nc2ccc3c(c2)OCCO3)ccn1` [CR-83], 5.5. `Cc1cccc2nc(-c3cccc(F)n3)c(Nc3ccc4c(c3)OCCO4)n12` [CR-84] came in with a pKi of 6.7. Compound `COc1cc(O)ccc1-c1nc2ccc(C)cn2c1Nc1ccc2c(c1)OCCO2` [CR-85] yielded a negative logarithm of the Ki (pKi) of 6.7.

Take `Cc1cccc2nc(-c3c(O)cccc3F)c(Nc3ccc4c(c3)OCCO4)n12` [CR-86]: the pKi came out at 6.6. As to `Cc1ccc2nc(-c3ncccc3F)c(Nc3ccc4c(c3)OCCO4)n2c1` [CR-87], the pKi is on record as 6.6. Take `COc1cc(-c2nc3cccc(C)n3c2Nc2ccc3c(c2)OCCO3)ccc1OCCF` [CR-88]: the negative logarithm of the Ki (pKi) is 6.6. Consider `Fc1ccc(-c2nc3cnccn3c2Nc2ccc3c(c2)OCCO3)cn1` [CR-89], for which the pKi was 5.5. Compound `COc1cccc(OC)c1-c1nc2ccncn2c1Nc1ccc2c(c1)OCCO2` [CR-90] displayed a pKi of 5.6. For `COc1cc(-c2nc3cnccn3c2Nc2ccc3c(c2)OCCO3)cc(F)c1O` [CR-91], the negative logarithm of the Ki (pKi) was 6.6.

On to `Fc1cccc(F)c1-c1nc2cnccn2c1Nc1ccc2c(c1)OCCO2` [CR-92], for which the pKi was 6.6. Same read-out and setting: the result for `COc1cc(-c2nc3ccccn3c2Nc2ccc3c(c2)OCCO3)cc(F)c1O` [CR-93] reads 5.7. `Clc1cccc(Cl)c1-c1nc2cnccn2c1Nc1ccc2c(c1)OCCO2` [CR-94] displayed a pKi of 6.6.

For `COc1cc(-c2nc3cccc(C)n3c2Nc2ccc3c(c2)OCCO3)cc(F)c1O` [CR-95], the negative-log Ki (pKi) came out at 6.6. The compound `COc1cc(-c2nc3ccc(C)cn3c2Nc2ccc3c(c2)OCCO3)cc(F)c1O` [CR-96] came in with a pKi of 6.5. On the same count and under the same terms, the result for `COc1cc(-c2nc3cccc(C)n3c2Nc2ccc3c(c2)OCCO3)ccc1O` [CR-97] reads 6.5; that for `COc1cc(-c2nc3ccncn3c2Nc2ccc3c(c2)OCCO3)ccc1O` [CR-98], 6.5. As to `Cc1ccn2c(Nc3ccc4c(c3)OCCO4)c(-c3cccc(F)n3)nc2c1` [CR-99], the pKi turned out to be 6.5. `COc1cccc(OC)c1-c1nc2ccc(C)cn2c1Nc1ccc2c(c1)OCCO2` [CR-100] showed a pKi of 6.5. In the case of `Cc1cccn2c(Nc3ccc4c(c3)OCCO4)c(-c3ccccn3)nc12` [CR-101], the negative logarithm of the Ki (pKi) is reported as 6.5.

For `OCc1ccn2c(Nc3ccc4c(c3)OCCO4)c(-c3c(F)cccc3Cl)nc2c1` [CR-102], the pKi was found to be 6.4. Same read-out and setting: the result for `Fc1cccc(Cl)c1-c1nc2cnccn2c1Nc1ccc2c(c1)OCCO2` [CR-103] reads 6.4; that for `COc1ccnc2nc(-c3c(F)cccc3Cl)c(Nc3ccc4c(c3)OCCO4)n12` [CR-104], 6.4; that for `COc1cc(O)ccc1-c1nc2c(C)cccn2c1Nc1ccc2c(c1)OCCO2` [CR-105], 6.4. In turn, `Cc1ccn2c(Nc3ccc4c(c3)OCCO4)c(-c3ncccc3F)nc2c1` [CR-106] returned a negative-log Ki (pKi) of 5.7. In the case of `COc1cc(O)ccc1-c1nc2cc(C)ccn2c1Nc1ccc2c(c1)OCCO2` [CR-107], the pKi was determined as 6.4. In turn, `COc1ccnc2nc(-c3c(C)cc(O)cc3C)c(Nc3ccc4c(c3)OCCO4)n12` [CR-108] yielded a negative logarithm of the Ki (pKi) of 6.3. The same measure, in the same setting: to `COc1cccc2nc(-c3c(F)cccc3Cl)c(NC(=O)Nc3ccc4c(c3)OCCO4)n12` [CR-109] belongs 6.3; to `Fc1ccc(-c2nc3ccccn3c2Nc2ccc3c(c2)OCCO3)cn1` [CR-110], 5.7; to `COc1cc(O)ccc1-c1nc2ncccn2c1Nc1ccc2c(c1)OCCO2` [CR-111], 6.3. Consider `COc1cccc(F)c1-c1nc2ncccn2c1Nc1ccc2c(c1)OCCO2` [CR-112], for which the pKi came to 6.3.

Turning to `Fc1cccnc1-c1nc2ccccn2c1Nc1ccc2c(c1)OCCO2` [CR-113], the pKi was 6.3. In the case of `COc1cccc(OC)c1-c1nc2cccc(C)n2c1Nc1ccc2c(c1)OCCO2` [CR-114], the pKi was 6.3. For the compound `c1ccc(-c2nc3ncccn3c2Nc2ccc3c(c2)OCCO3)nc1` [CR-115], the pKi turned out to be 6.2.

For `COc1cccc(OC)c1-c1nc2ccccn2c1Nc1ccc2c(c1)OCCO2` [CR-116], the negative logarithm of the Ki (pKi) is on record as 6.2. The compound `COc1cccc2nc(-c3c(F)cccc3Cl)c(NC(=O)c3ccc4c(c3)OCCO4)n12` [CR-117] came in with a pKi of 5.7. The same measure, in the same setting: to `COc1cccc(OC)c1-c1nc2cnccn2c1Nc1ccc2c(c1)OCCO2` [CR-118] belongs 5.8; to `Cc1ccn2c(Nc3ccc4c(c3)OCCO4)c(-c3ccccn3)nc2c1` [CR-119], 5.9; to `COc1cc(O)ccc1-c1nc2ccncn2c1Nc1ccc2c(c1)OCCO2` [CR-120], 5.9. For `COc1cccc(OC)c1-c1nc2ncccn2c1Nc1ccc2c(c1)OCCO2` [CR-121], the negative-log Ki (pKi) is 6.0. With `Fc1cccc(Cl)c1-c1nc2cccc(C(F)(F)F)n2c1Nc1ccc2c(c1)OCCO2` [CR-122], the negative logarithm of the Ki (pKi) stood at 6.0. Compound `COc1cccc(OC)c1-c1nc2c(C)cccn2c1Nc1ccc2c(c1)OCCO2` [CR-123] yielded a pKi of 6.0. The same measure, in the same setting: the result for `Cc1cccc2nc(-c3c(F)cccc3Cl)c(N(C)c3ccc4c(c3)OCCO4)n12` [CR-124] reads 6.0; that for `COc1cccc(F)c1-c1nc2cnccn2c1Nc1ccc2c(c1)OCCO2` [CR-125], 5.9.

Compound `COc1cccc(OC)c1-c1nc2cc(C)ccn2c1Nc1ccc2c(c1)OCCO2` [CR-126] had a pKi of 5.9. In turn, `Cc1cccc2nc(-c3c(F)cccc3Cl)c(Nc3ccc4c(c3)OCO4)n12` [CR-127] displayed a negative logarithm of the Ki (pKi) of 7.3. On the same count and under the same terms, to `Fc1cccc(Cl)c1-c1nc2ccccn2c1Nc1ccc2c(c1)OCO2` [CR-128] belongs 6.7.

As to `Cc1cccn2c(Nc3ccc4c(c3)OCO4)c(-c3c(F)cccc3Cl)nc12` [CR-129], the pKi came out at 6.4. Take `COc1cc(-c2nc3cc(C)ccn3c2Nc2ccc3c(c2)OCO3)cc(F)c1O` [CR-130]: the pKi is 6.1. Regarding `COc1cccc2nc(-c3c(C)cc(OCC[18F])cc3C)c(Nc3ccc4c(c3)OCCO4)n12` [CR-132], the affinity corresponds to a Ki of 5.01 nM. `COc1cccc2nc(-c3c(F)ccc(OCC[18F])c3F)c(Nc3ccc4c(c3)OCCO4)n12` [CR-133] had a Ki of 1.58 nM.

Compound `COc1cccc2nc(-c3c(F)ccc(OC[18F])c3Cl)c(Nc3ccc4c(c3)OCCO4)n12` [CR-134] showed an inhibitory constant (Ki) of 1 nM. Regarding `Fc1cncc(F)c1-c1nc2cccc(OCC[18F])n2c1Nc1ccc2c(c1)OCCO2` [CR-135], the inhibitory constant (Ki) was 39.8 nM. Consider `COc1cccc2nc(-c3c(C)cc(OC[18F])cc3C)c(Nc3ccc4c(c3)OCCO4)n12` [CR-136], for which the pKi is 9.5. Still for that read-out and setting: to `COc1cnc2nc(-c3c(F)cncc3F)c(Nc3ccc4c(c3)OCCO4)n2c1` [CR-137] belongs 6.5; to `COc1cccc2nc(-c3c(F)cc(O)cc3Cl)c(Nc3ccc4c(c3)OCCO4)n12` [CR-138], 8.3.

One may read the pKi as the Ki on a negative log10 scale, so that one unit is a factor of ten. Low values mean a high Ki, high ones a low Ki. As a reminder, the Ki is the equilibrium dissociation constant of an inhibitor or competing ligand from its target. Lower therefore signals tighter binding.
